Measured values as given in patent US7732467B2, “Method for reducing amyloid deposition, amyloid neurotoxicity and microgliosis” (Alzheimer's Institute of America, Inc., priority 2003, dated 2010).

Columns and labels:
[1] = tested on: human glioblastoma cells transfected with APPsw; experiment: APP processing, Aβ1-40 production in culture medium by ELISA; assay type: cell-based
Description: Production of Aβ1-40 in the culture medium was measured by ELISA.

[2] = tested on: plasma Aβ in TgPS/APPsw mice; experiment: Plasma Aβ levels in TgPS/APPsw mice, human Aβ1-40 ELISA; assay type: in vivo, mouse; settings: 1.5 mg/kg I.P. every day for three and one half weeks; 2 year old TgPS/APPsw mice
Description: Following this treatment, 100 μl of blood were collected from the tail vein of the animals using EDTA (4%) as an anticoagulant. Blood samples were centrifuged at 4000 g for 1 min and the plasma was collected and diluted four times before being assayed for human Aβ1-40 using a commercially available human Aβ1-40 ELISA (Biosource, CA).

[3] = tested on: N9 murine microglial cells; experiment: LPS-induced microglial activation in vitro, TNF-α production by ELISA; assay type: cell-based, mouse
Description: Microglial activation is determined by TNF-α production (pg/ml) measured by ELISA;
N9 murine micoglial cells are well characterized scavenger murine microglial clones derived from embryonic mouse brain. The extent of microglial activation was determined by TNF-α production (pg/ml) measured by ELISA.

[4] = tested on: human neuronal progenitor cells (HNPC); experiment: Aβ neurotoxicity, LDH release from cells treated with pre-aggregated Aβ1-40; assay type: cell-based; settings: 100 nM nilvadipine along with 30 μM AgAβ, three days
Description: Neurotoxicity is assessed by measuring the amount of lactic dehydrogenase (LDH) released from cells;
HNPC cells differentiate into neurons readily upon treatment with cyclic AMP. Cyclic AMP (1 mM) (Sigma) was added to the culture medium and the HNPC cells were incubated at 37° C. for 48 hours or more under serum free conditions. […] Neurotoxicity was assessed by measuring the amount of lactic dehydrogenase (LDH; an intracellular enzyme found in all cells) released from the cells.

COC(=O)C1=C(C#N)NC(C)=C(C(=O)OC(C)C)C1c1cccc([N+](=O)[O-])c1 (stereo not drawn) [nilvadipine, isopropyl-3-methyl-2-cyano-1,4-dihydro-6-methyl-4-(m-nitrophenyl)-3,5-pyridine-dicarboxylate]
reduction of Aβ1-40 production ([1]; 50 nM, 24 hours): about 9% | reduction of Aβ1-40 production ([1]; 50 nM, 48 hours): about 18% | reduction of Aβ1-40 production ([1]; 250 nM, 24 hours): about 15% | reduction of Aβ1-40 production ([1]; 250 nM, 48 hours): about 5% | increase in plasma levels of Aβ compared to control animals [2]: 42% | TNF-α production ([3]; 50 nM nilvadipine, no LPS, N9 cells): about 40 pg/ml | TNF-α production ([3]; 1 μg/ml LPS plus 50 nM nilvadipine, 24 hours, N9 cells (LPS alone about 820 pg/ml)): about 670 pg/ml | TNF-α production ([3]; LPS plus 500 nM nilvadipine, 24 hours, N9 cells (LPS alone about 820 pg/ml)): about 610 pg/ml | decrease in LDH release [4]: about 44%
